26 molecules from the supplement of paper PMC12137928 can be followed below.

Where a name gives a salt, the structure may show the parent alone.

This assay concerns HCT116. Particulars: 72 h. In outline:
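Luminescence was read with CellTiter-Glo in HCT116 cells seeded at 250 per well in 1536-well plates. Signals were scaled between vehicle at 0% and positive control at -100%, then pattern-corrected. IC50 and maximal efficacy were obtained by fitting a four-parameter Hill equation.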

Take `NCC[C@H](O)C(=O)N[C@@H]1C[C@H](N)[C@@H](O[C@H]2O[C@H](CN)[C@@H](O)[C@H](O)[C@H]2O)[C@H](O)[C@H]1O[C@H]1O[C@H](CO)[C@@H](O)[C@H](N)[C@H]1O` [Amikacin]: the IC50 cell viability is > 45.8 µM (ICRF193 0 nM) and > 45.8 µM (ICRF193 200 nM).

As for `COc1nc(C)nc(Cl)c1NC1=NCCN1` [Moxonidine hydrochloride hydrate], the IC50 cell viability by setting is: (ICRF193 0 nM) > 45.8 µM; (ICRF193 200 nM) > 45.8 µM.

Consider `CC(C)[C@@H]1CC[C@@H](C)CC1=O` [(2S,5R)-5-Methyl-2-(propan-2-yl)cyclohexanone], for which the IC50 cell viability by setting is: (ICRF193 0 nM) > 45.8 µM; (ICRF193 200 nM) > 45.8 µM.

`C[C@H](N[C@@H](CCc1ccccc1)C(=O)O)C(=O)N1CCC[C@H]1C(=O)O` [Enalapril acid]: the IC50 cell viability is > 45.8 µM (ICRF193 0 nM) and > 45.8 µM (ICRF193 200 nM).

Turning to `CNNCc1ccc(C(=O)NC(C)C)cc1` [Procarbazine hydrochloride], the IC50 cell viability runs as follows: (ICRF193 0 nM) > 45.8 µM; (ICRF193 200 nM) > 45.8 µM.

Consider `C=CCC1=C(C)C(OC(=O)C2C(C=C(C)C)C2(C)C)CC1=O` (configuration not stated) [Allethrin], for which the IC50 cell viability reads like this: (ICRF193 0 nM) > 45.8 µM; (ICRF193 200 nM) > 45.8 µM.

Turning to `OCCN1CCN(CCCN2c3ccccc3C=Cc3ccccc32)CC1` [Opipramol dihydrochloride], the IC50 cell viability was > 45.8 µM (ICRF193 0 nM) and > 45.8 µM (ICRF193 200 nM).

Take `CS(=O)(=O)Nc1cc2occ(NC=O)c(=O)c2cc1Oc1ccccc1` [Iguratimod]: the IC50 cell viability (ICRF193 0 nM) was > 45.8 µM and the IC50 cell viability (ICRF193 200 nM) was > 45.8 µM.

With `O=C1c2c(O)cccc2C([C@@H]2O[C@H](CO)[C@@H](O)[C@H](O)[C@H]2O)c2cc(CO)cc(O)c21` (some centres not stated) [ALOIN], the IC50 cell viability reads like this: (ICRF193 0 nM) > 45.8 µM; (ICRF193 200 nM) > 45.8 µM.

With `CCOC(=O)n1ccn(C)c1=S` [Carbimazole], the IC50 cell viability is > 45.8 µM (ICRF193 0 nM) and > 45.8 µM (ICRF193 200 nM).

In the case of `CC(C)C(=O)Oc1ccc(CO)cc1[C@H](CCN(C(C)C)C(C)C)c1ccccc1` [FESOTERODINE FUMARATE], the IC50 cell viability by setting is: (ICRF193 0 nM) > 45.8 µM; (ICRF193 200 nM) > 45.8 µM.

In the case of `Cc1cn([C@H]2C=C[C@@H](CO)O2)c(=O)[nH]c1=O` [Stavudine], the IC50 cell viability was > 45.8 µM (ICRF193 0 nM) and > 45.8 µM (ICRF193 200 nM).

For `CN1CCN2c3ncccc3Cc3ccccc3C2C1` (configuration not stated) [Mirtazapine], the IC50 cell viability runs as follows: (ICRF193 0 nM) > 45.8 µM; (ICRF193 200 nM) > 45.8 µM.

As to `O=C(OCc1ccccc1)c1ccccc1` [Benzyl benzoate], the IC50 cell viability (ICRF193 0 nM) is > 45.8 µM and the IC50 cell viability (ICRF193 200 nM) is > 45.8 µM.

In the case of `C[C@]12CC[C@@H]3c4ccc(O)cc4CC[C@H]3[C@@H]1CC[C@@H]2OC(=O)CCC1CCCC1` [Estradiol cypionate], the IC50 cell viability is > 45.8 µM (ICRF193 0 nM) and > 45.8 µM (ICRF193 200 nM).

With `Cc1c(F)cc2c(=O)c(C(=O)O)cn3c2c1CCC3C` (configuration not stated) [Ibafloxacine], the IC50 cell viability was > 45.8 µM (ICRF193 0 nM) and > 45.8 µM (ICRF193 200 nM).

As for `COCCCOc1ccnc(C[S+]([O-])c2nc3ccccc3[nH]2)c1C` (configuration not stated) [Rabeprazole], the IC50 cell viability is > 45.8 µM (ICRF193 0 nM) and > 45.8 µM (ICRF193 200 nM).

On to `O=C(O)CCC(=O)Nc1ccc(S(=O)(=O)Nc2nccs2)cc1` [Succinylsulfathiazole], for which the IC50 cell viability by setting is: (ICRF193 0 nM) > 45.8 µM; (ICRF193 200 nM) > 45.8 µM.

For the molecule `C[N+]1(C)CCC(=C(c2ccccc2)c2ccccc2)CC1` [Diphemanil methylsulfate], the IC50 cell viability (ICRF193 0 nM) is > 45.8 µM and the IC50 cell viability (ICRF193 200 nM) is > 45.8 µM.

Consider `CN1C(=O)NC(=O)C(C)(C2=CCCCC2)C1=O` (configuration not stated) [Hexobarbital], for which the IC50 cell viability is > 45.8 µM (ICRF193 0 nM) and > 45.8 µM (ICRF193 200 nM).

Consider `CNC(C)C(O)c1ccc(O)cc1` (configuration not stated), for which the IC50 cell viability was > 45.8 µM (ICRF193 0 nM) and > 45.8 µM (ICRF193 200 nM).

Consider `CC[N+](C)(CC)CCOC(=O)C(O)(c1ccccc1)c1ccccc1` [Benzactyzine methobromide], for which the IC50 cell viability reads like this: (ICRF193 0 nM) > 45.8 µM; (ICRF193 200 nM) > 45.8 µM.

For the molecule `CC1=CCC(O)(C(C)C)CC1` (configuration not stated) [Terpineol], the IC50 cell viability is > 45.8 µM (ICRF193 0 nM) and > 45.8 µM (ICRF193 200 nM).

For `CC1(C)O[C@@H]2C[C@H]3[C@@H]4C[C@H](F)C5=CC(=O)C=C[C@]5(C)[C@@]4(F)[C@@H](O)C[C@]3(C)[C@]2(C(=O)CO)O1` [Fluocinolone acetonide], the IC50 cell viability is, setting by setting: (ICRF193 0 nM) > 45.8 µM; (ICRF193 200 nM) > 45.8 µM.

Regarding `COC(=O)[C@@H]1[C@H]2C[C@H]3c4[nH]c5ccccc5c4CCN3C[C@@H]2CC[C@@H]1O` [Yohimbine], the IC50 cell viability by setting is: (ICRF193 0 nM) > 45.8 µM; (ICRF193 200 nM) > 45.8 µM.

Turning to `C/N=C(\NC)NCc1ccccc1` [Bethanidine sulfate (2:1)], the IC50 cell viability is, setting by setting: (ICRF193 0 nM) > 45.8 µM; (ICRF193 200 nM) > 45.8 µM.
